Data published in the CheMixHub ionic liquid set.

Test: xn = mol fraction of the nth substance listed

CCCC[n+]1ccn(C)c1.[Cl-] + O
Details	electrical conductivity [S/m]	viscosity [mPa·s]
278.15 K, 100 kPa, x1 = 9.568e-05	–	1.532
278.15 K, 100 kPa, x1 = 0.000202	–	1.539
278.15 K, 100 kPa, x1 = 0.0003808	–	1.545
278.15 K, 100 kPa, x1 = 0.0005628	–	1.555
278.15 K, 100 kPa, x1 = 0.0007322	–	1.561
278.15 K, 100 kPa, x1 = 0.0009239	–	1.57
278.15 K, 100 kPa, x1 = 0.001099	–	1.576
278.15 K, 100 kPa, x1 = 0.001363	–	1.587
278.15 K, 100 kPa, x1 = 0.001909	–	1.608
283.15 K, 100 kPa, x1 = 9.568e-05	–	1.314
283.15 K, 100 kPa, x1 = 0.000202	–	1.318
283.15 K, 100 kPa, x1 = 0.0003808	–	1.325
283.15 K, 100 kPa, x1 = 0.0005628	–	1.332
283.15 K, 100 kPa, x1 = 0.0007322	–	1.339
283.15 K, 100 kPa, x1 = 0.0009239	–	1.348
283.15 K, 100 kPa, x1 = 0.001099	–	1.355
283.15 K, 100 kPa, x1 = 0.001363	–	1.365
283.15 K, 100 kPa, x1 = 0.001909	–	1.377
288.15 K, 100 kPa, x1 = 9.568e-05	–	1.146
288.15 K, 100 kPa, x1 = 0.000202	–	1.149
288.15 K, 100 kPa, x1 = 0.0003808	–	1.155
288.15 K, 100 kPa, x1 = 0.0005628	–	1.161
288.15 K, 100 kPa, x1 = 0.0007322	–	1.168
288.15 K, 100 kPa, x1 = 0.0009239	–	1.178
288.15 K, 100 kPa, x1 = 0.001099	–	1.18
288.15 K, 100 kPa, x1 = 0.001363	–	1.189
288.15 K, 100 kPa, x1 = 0.001909	–	1.198
293.15 K, 100 kPa, x1 = 0.0003808	–	1.017
293.15 K, 100 kPa, x1 = 0.0005628	–	1.021
293.15 K, 100 kPa, x1 = 0.0007322	–	1.027
293.15 K, 100 kPa, x1 = 0.0009239	–	1.033
293.15 K, 100 kPa, x1 = 0.001099	–	1.036
293.15 K, 100 kPa, x1 = 0.001363	–	1.044
293.15 K, 100 kPa, x1 = 0.001909	–	1.053
293.15 K, 101 kPa, x2 = 0.4982	–	240
293.15 K, 101 kPa, x2 = 0.9502	–	2.57
298.15 K, 100 kPa, x1 = 0.000202	–	0.9
298.15 K, 100 kPa, x1 = 0.0003808	–	0.904
298.15 K, 100 kPa, x1 = 0.0005628	–	0.908
298.15 K, 100 kPa, x1 = 0.0007322	–	0.913
298.15 K, 100 kPa, x1 = 0.0009239	–	0.918
298.15 K, 100 kPa, x1 = 0.001099	–	0.922
298.15 K, 100 kPa, x1 = 0.001363	–	0.928
298.15 K, 100 kPa, x1 = 0.001909	–	0.936
298.15 K, 101 kPa, x1 = 0.009814	3.03	–
298.15 K, 101 kPa, x2 = 0.8034	3.08	12.6
298.15 K, 101 kPa, x2 = 0.9259	6.29	–
298.15 K, 101 kPa, x2 = 0.9476	6.24	–
298.15 K, 101 kPa, x2 = 0.9647	5.76	–
298.15 K, 101 kPa, x2 = 0.9787	4.73	–
298.15 K, 101.3 kPa, x1 = 8.71e-06	0.00583	–
298.15 K, 101.3 kPa, x1 = 1.208e-05	0.00794	–
298.15 K, 101.3 kPa, x1 = 1.485e-05	0.00965	–
298.15 K, 101.3 kPa, x1 = 1.707e-05	0.01101	–
298.15 K, 101.3 kPa, x1 = 1.937e-05	0.01241	–
298.15 K, 101.3 kPa, x1 = 2.164e-05	0.0138	–
298.15 K, 101.3 kPa, x1 = 2.397e-05	0.0152	–
298.15 K, 101.3 kPa, x1 = 2.6e-05	0.0164	–
298.15 K, 101.3 kPa, x1 = 2.824e-05	0.0177	–
298.15 K, 101.3 kPa, x1 = 3.029e-05	0.019	–
298.15 K, 101.3 kPa, x1 = 0.0009038	–	0.911
298.15 K, 101.3 kPa, x1 = 0.000929	–	0.908
298.15 K, 101.3 kPa, x1 = 0.001008	–	0.919
298.15 K, 101.3 kPa, x1 = 0.001815	–	0.928
298.15 K, 101.3 kPa, x1 = 0.00182	–	0.935
298.15 K, 101.3 kPa, x1 = 0.001824	–	0.928
298.15 K, 101.3 kPa, x1 = 0.003602	–	0.971
303.15 K, 100 kPa, x1 = 9.568e-05	–	0.803
303.15 K, 100 kPa, x1 = 0.000202	–	0.806
303.15 K, 100 kPa, x1 = 0.0003808	–	0.81
303.15 K, 100 kPa, x1 = 0.0005628	–	0.813
303.15 K, 100 kPa, x1 = 0.0007322	–	0.817
303.15 K, 100 kPa, x1 = 0.0009239	–	0.82
303.15 K, 100 kPa, x1 = 0.001099	–	0.823
303.15 K, 100 kPa, x1 = 0.001363	–	0.828
303.15 K, 100 kPa, x1 = 0.001909	–	0.837
303.15 K, 101 kPa, x2 = 0.8999	–	3.82
308.15 K, 100 kPa, x1 = 9.568e-05	–	0.725
308.15 K, 100 kPa, x1 = 0.000202	–	0.727
308.15 K, 100 kPa, x1 = 0.0003808	–	0.73
308.15 K, 100 kPa, x1 = 0.0005628	–	0.733
308.15 K, 100 kPa, x1 = 0.0007322	–	0.737
308.15 K, 100 kPa, x1 = 0.0009239	–	0.74
308.15 K, 100 kPa, x1 = 0.001099	–	0.742
308.15 K, 100 kPa, x1 = 0.001363	–	0.746
308.15 K, 100 kPa, x1 = 0.001909	–	0.754
308.15 K, 101 kPa, x2 = 0.4982	–	92
308.15 K, 101.3 kPa, x1 = 0.0009038	–	0.737
308.15 K, 101.3 kPa, x1 = 0.00092	–	0.733
308.15 K, 101.3 kPa, x1 = 0.000929	–	0.733
308.15 K, 101.3 kPa, x1 = 0.001008	–	0.74
308.15 K, 101.3 kPa, x1 = 0.001815	–	0.748
308.15 K, 101.3 kPa, x1 = 0.00182	–	0.754
308.15 K, 101.3 kPa, x1 = 0.001822	–	0.751
308.15 K, 101.3 kPa, x1 = 0.001824	–	0.747
310.15 K, 101.3 kPa, x1 = 0.0009038	–	0.71
310.15 K, 101.3 kPa, x1 = 0.00092	–	0.705
310.15 K, 101.3 kPa, x1 = 0.000929	–	0.704
310.15 K, 101.3 kPa, x1 = 0.001008	–	0.712
310.15 K, 101.3 kPa, x1 = 0.001815	–	0.722
310.15 K, 101.3 kPa, x1 = 0.00182	–	0.728
310.15 K, 101.3 kPa, x1 = 0.001822	–	0.722
310.15 K, 101.3 kPa, x1 = 0.001824	–	0.717
313.15 K, 100 kPa, x1 = 9.568e-05	–	0.658
313.15 K, 100 kPa, x1 = 0.000202	–	0.66
313.15 K, 100 kPa, x1 = 0.0003808	–	0.663
313.15 K, 100 kPa, x1 = 0.0005628	–	0.665
313.15 K, 100 kPa, x1 = 0.0007322	–	0.668
313.15 K, 100 kPa, x1 = 0.0009239	–	0.671
313.15 K, 100 kPa, x1 = 0.001099	–	0.673
313.15 K, 100 kPa, x1 = 0.001363	–	0.677
313.15 K, 100 kPa, x1 = 0.001909	–	0.686
318.15 K, 101.3 kPa, x1 = 0.0009038	–	0.613
318.15 K, 101.3 kPa, x1 = 0.00092	–	0.608
318.15 K, 101.3 kPa, x1 = 0.000929	–	0.607
318.15 K, 101.3 kPa, x1 = 0.001008	–	0.615
318.15 K, 101.3 kPa, x1 = 0.001815	–	0.624
318.15 K, 101.3 kPa, x1 = 0.00182	–	0.625
318.15 K, 101.3 kPa, x1 = 0.001822	–	0.623
318.15 K, 101.3 kPa, x1 = 0.001824	–	0.618
